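96-well plates; 48 h exposure; 5 concentrations. Endpoints by linear interpolation between flanking doses. Not reached: highest tested concentration assigned. The concentration for full growth arrest is given as TGI.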
Legend:
Test in all cases: NCI tumour cell line growth inhibition, 48 h
SR leukemia = tested on: SR leukemia
OVCAR-4 ovarian = tested on: OVCAR-4 ovarian
UACC-257 melanoma = tested on: UACC-257 melanoma
HOP-62 NSCLC = tested on: HOP-62 NSCLC
MDA-MB-435 = tested on: MDA-MB-435
RXF 393 renal = tested on: RXF 393 renal
NCI/ADR-RES ovarian = tested on: NCI/ADR-RES ovarian
SNB-75 CNS = tested on: SNB-75 CNS
KM12 colon = tested on: KM12 colon
SN12C renal = tested on: SN12C renal
MOLT-4 leukemia = tested on: MOLT-4 leukemia
COLO 205 colon = tested on: COLO 205 colon
CAKI-1 renal = tested on: CAKI-1 renal
SF-539 CNS = tested on: SF-539 CNS
HCC-2998 colon = tested on: HCC-2998 colon
M14 melanoma = tested on: M14 melanoma
HOP-92 NSCLC = tested on: HOP-92 NSCLC
786-0 renal = tested on: 786-0 renal
MALME-3M melanoma = tested on: MALME-3M melanoma
HT29 colon = tested on: HT29 colon
A549 NSCLC = tested on: A549 NSCLC
UACC-62 melanoma = tested on: UACC-62 melanoma
BT-549 breast = tested on: BT-549 breast
U251 CNS = tested on: U251 CNS
SNB-19 CNS = tested on: SNB-19 CNS
HCT-15 colon = tested on: HCT-15 colon
MDA-N = tested on: MDA-N
NCI-H23 lung = tested on: NCI-H23 lung
NCI-H460 lung = tested on: NCI-H460 lung
UO-31 renal = tested on: UO-31 renal
SK-OV-3 ovarian = tested on: SK-OV-3 ovarian
LOX IMVI melanoma = tested on: LOX IMVI melanoma
SK-MEL-5 melanoma = tested on: SK-MEL-5 melanoma
HCT-116 colon = tested on: HCT-116 colon
SK-MEL-2 melanoma = tested on: SK-MEL-2 melanoma
OVCAR-5 ovarian = tested on: OVCAR-5 ovarian
MDA-MB-231 breast = tested on: MDA-MB-231 breast
ACHN renal = tested on: ACHN renal
SW-620 colon = tested on: SW-620 colon
NCI-H226 lung = tested on: NCI-H226 lung
NCI-H522 lung = tested on: NCI-H522 lung
PC-3 prostate = tested on: PC-3 prostate
MCF7 breast = tested on: MCF7 breast
SF-295 CNS = tested on: SF-295 CNS
HS 578T breast = tested on: HS 578T breast
TK-10 renal = tested on: TK-10 renal
CCRF-CEM leukemia = tested on: CCRF-CEM leukemia
OVCAR-3 ovarian = tested on: OVCAR-3 ovarian
IGROV1 ovarian = tested on: IGROV1 ovarian
T-47D breast = tested on: T-47D breast
EKVX NSCLC = tested on: EKVX NSCLC
OVCAR-8 ovarian = tested on: OVCAR-8 ovarian
SK-MEL-28 melanoma = tested on: SK-MEL-28 melanoma
HL-60(TB) leukemia = tested on: HL-60(TB) leukemia
SF-268 CNS = tested on: SF-268 CNS
DU-145 prostate = tested on: DU-145 prostate
K-562 leukemia = tested on: K-562 leukemia
RPMI-8226 leukemia = tested on: RPMI-8226 leukemia
A498 renal = tested on: A498 renal

In the case of CN1C(c2ccccc2)=CC(=O)C(O)=C(c2ccccc2)S1(=O)=O, the TGI (SR leukemia) is reported as greater than 100 µM, the TGI (OVCAR-4 ovarian) is reported as greater than 100 µM and the TGI (UACC-257 melanoma) is reported as greater than 100 µM. For the same compound, the TGI (HOP-62 NSCLC) was greater than 100 µM, the TGI (MDA-MB-435) was greater than 100 µM and the TGI (RXF 393 renal) was greater than 100 µM. It also gave a TGI (NCI/ADR-RES ovarian) greater than 100 µM, a TGI (SNB-75 CNS) greater than 100 µM and a TGI (KM12 colon) greater than 100 µM. The TGI (SN12C renal) was greater than 100 µM, the TGI (MOLT-4 leukemia) was greater than 100 µM and the TGI (COLO 205 colon) was greater than 100 µM. For the same compound, the TGI (CAKI-1 renal) was greater than 100 µM, the TGI (SF-539 CNS) was greater than 100 µM and the TGI (HCC-2998 colon) was greater than 100 µM. It also gave a TGI (M14 melanoma) greater than 100 µM, a TGI (HOP-92 NSCLC) greater than 100 µM and a TGI (786-0 renal) greater than 100 µM. It also gave a TGI (MALME-3M melanoma) greater than 100 µM, a TGI (HT29 colon) greater than 100 µM and a TGI (A549 NSCLC) greater than 100 µM. It also gave a TGI (UACC-62 melanoma) greater than 100 µM, a TGI (BT-549 breast) greater than 100 µM and a TGI (U251 CNS) greater than 100 µM. The TGI (SNB-19 CNS) was greater than 100 µM, the TGI (HCT-15 colon) was greater than 100 µM and the TGI (MDA-N) was greater than 100 µM. It also gave a TGI (NCI-H23 lung) greater than 100 µM, a TGI (NCI-H460 lung) greater than 100 µM and a TGI (UO-31 renal) greater than 100 µM. For the same compound, the TGI (SK-OV-3 ovarian) was greater than 100 µM, the TGI (LOX IMVI melanoma) was greater than 100 µM and the TGI (SK-MEL-5 melanoma) was greater than 100 µM. For the same compound, the TGI (HCT-116 colon) was greater than 100 µM, the TGI (SK-MEL-2 melanoma) was greater than 100 µM and the TGI (OVCAR-5 ovarian) was greater than 100 µM. The TGI (MDA-MB-231 breast) was greater than 100 µM, the TGI (ACHN renal) was greater than 100 µM and the TGI (SW-620 colon) was greater than 100 µM. For the same compound, the TGI (NCI-H226 lung) was greater than 100 µM, the TGI (NCI-H522 lung) was greater than 100 µM and the TGI (PC-3 prostate) was greater than 100 µM. For the same compound, the TGI (MCF7 breast) was greater than 100 µM, the TGI (SF-295 CNS) was greater than 100 µM and the TGI (HS 578T breast) was greater than 100 µM. The TGI (TK-10 renal) was greater than 100 µM, the TGI (CCRF-CEM leukemia) was greater than 100 µM and the TGI (OVCAR-3 ovarian) was greater than 100 µM. For the same compound, the TGI (IGROV1 ovarian) was greater than 100 µM, the TGI (T-47D breast) was greater than 100 µM and the TGI (EKVX NSCLC) was greater than 100 µM. The TGI (OVCAR-8 ovarian) was greater than 100 µM, the TGI (SK-MEL-28 melanoma) was greater than 100 µM and the TGI (HL-60(TB) leukemia) was greater than 100 µM. The TGI (SF-268 CNS) was greater than 100 µM, the TGI (DU-145 prostate) was greater than 100 µM and the TGI (K-562 leukemia) was greater than 100 µM. The TGI (RPMI-8226 leukemia) was greater than 100 µM.
Work on COC(=O)c1ccccc1NC(=O)/C(=N\NC(C)(C)C)C(C#N)c1nc(-c2ccc([N+](=O)[O-])cc2)cs1 (stereo not drawn) yielded a TGI (SR leukemia) greater than 100 µM, a TGI (OVCAR-4 ovarian) greater than 100 µM and a TGI (UACC-257 melanoma) greater than 100 µM. It also gave a TGI (MDA-MB-435) greater than 100 µM, a TGI (RXF 393 renal) greater than 100 µM and a TGI (NCI/ADR-RES ovarian) greater than 100 µM. It also gave a TGI (A498 renal) greater than 100 µM, a TGI (SNB-75 CNS) greater than 100 µM and a TGI (KM12 colon) greater than 100 µM. It also gave a TGI (SN12C renal) greater than 100 µM, a TGI (MOLT-4 leukemia) greater than 100 µM and a TGI (COLO 205 colon) greater than 100 µM. The TGI (CAKI-1 renal) was greater than 100 µM, the TGI (SF-539 CNS) was greater than 100 µM and the TGI (HCC-2998 colon) was greater than 100 µM. For the same compound, the TGI (M14 melanoma) was greater than 100 µM, the TGI (HOP-92 NSCLC) was greater than 100 µM and the TGI (786-0 renal) was greater than 100 µM. It also gave a TGI (MALME-3M melanoma) greater than 100 µM, a TGI (HT29 colon) greater than 100 µM and a TGI (A549 NSCLC) greater than 100 µM. For the same compound, the TGI (UACC-62 melanoma) was greater than 100 µM, the TGI (BT-549 breast) was greater than 100 µM and the TGI (U251 CNS) was greater than 100 µM. It also gave a TGI (SNB-19 CNS) greater than 100 µM, a TGI (HCT-15 colon) greater than 100 µM and a TGI (MDA-N) greater than 100 µM. The TGI (NCI-H23 lung) was greater than 100 µM, the TGI (NCI-H460 lung) was greater than 100 µM and the TGI (UO-31 renal) was greater than 100 µM. It also gave a TGI (SK-OV-3 ovarian) greater than 100 µM, a TGI (LOX IMVI melanoma) greater than 100 µM and a TGI (SK-MEL-5 melanoma) greater than 100 µM. For the same compound, the TGI (HCT-116 colon) was greater than 100 µM, the TGI (SK-MEL-2 melanoma) was greater than 100 µM and the TGI (OVCAR-5 ovarian) was greater than 100 µM. For the same compound, the TGI (MDA-MB-231 breast) was greater than 100 µM, the TGI (ACHN renal) was greater than 100 µM and the TGI (SW-620 colon) was greater than 100 µM. The TGI (NCI-H226 lung) was greater than 100 µM, the TGI (PC-3 prostate) was greater than 100 µM and the TGI (MCF7 breast) was greater than 100 µM. The TGI (SF-295 CNS) was greater than 100 µM, the TGI (HS 578T breast) was greater than 100 µM and the TGI (CCRF-CEM leukemia) was greater than 100 µM. For the same compound, the TGI (OVCAR-3 ovarian) was greater than 100 µM, the TGI (IGROV1 ovarian) was greater than 100 µM and the TGI (T-47D breast) was greater than 100 µM. The TGI (EKVX NSCLC) was greater than 100 µM, the TGI (OVCAR-8 ovarian) was greater than 100 µM and the TGI (SK-MEL-28 melanoma) was greater than 100 µM. For the same compound, the TGI (HL-60(TB) leukemia) was greater than 100 µM, the TGI (SF-268 CNS) was greater than 100 µM and the TGI (DU-145 prostate) was greater than 100 µM. It also gave a TGI (K-562 leukemia) greater than 100 µM and a TGI (RPMI-8226 leukemia) greater than 100 µM.
Work on O=C(c1cc(Cl)cc(Cl)c1)N(C(=S)OC12CC3CC(CC(C3)C1)C2)c1ccccc1 yielded a TGI (SR leukemia) greater than 100 µM, a TGI (OVCAR-4 ovarian) greater than 100 µM and a TGI (UACC-257 melanoma) greater than 100 µM. It also gave a TGI (HOP-62 NSCLC) greater than 100 µM, a TGI (MDA-MB-435) greater than 100 µM and a TGI (RXF 393 renal) greater than 100 µM. It also gave a TGI (NCI/ADR-RES ovarian) greater than 100 µM, a TGI (A498 renal) greater than 100 µM and a TGI (SNB-75 CNS) greater than 100 µM. For the same compound, the TGI (KM12 colon) was greater than 100 µM, the TGI (SN12C renal) was greater than 100 µM and the TGI (COLO 205 colon) was 35.4 µM. For the same compound, the TGI (CAKI-1 renal) was greater than 100 µM, the TGI (SF-539 CNS) was greater than 100 µM and the TGI (HCC-2998 colon) was greater than 100 µM. For the same compound, the TGI (M14 melanoma) was 56.7 µM, the TGI (HOP-92 NSCLC) was greater than 100 µM and the TGI (786-0 renal) was greater than 100 µM. For the same compound, the TGI (MALME-3M melanoma) was greater than 100 µM, the TGI (HT29 colon) was greater than 100 µM and the TGI (A549 NSCLC) was greater than 100 µM. For the same compound, the TGI (UACC-62 melanoma) was greater than 100 µM, the TGI (BT-549 breast) was greater than 100 µM and the TGI (U251 CNS) was greater than 100 µM. It also gave a TGI (SNB-19 CNS) greater than 100 µM, a TGI (HCT-15 colon) greater than 100 µM and a TGI (MDA-N) greater than 100 µM. It also gave a TGI (NCI-H23 lung) greater than 100 µM, a TGI (NCI-H460 lung) greater than 100 µM and a TGI (UO-31 renal) of 82.8 µM. The TGI (SK-OV-3 ovarian) was greater than 100 µM, the TGI (SK-MEL-5 melanoma) was greater than 100 µM and the TGI (HCT-116 colon) was greater than 100 µM. The TGI (SK-MEL-2 melanoma) was 41.6 µM, the TGI (OVCAR-5 ovarian) was greater than 100 µM and the TGI (MDA-MB-231 breast) was greater than 100 µM. It also gave a TGI (ACHN renal) greater than 100 µM, a TGI (SW-620 colon) greater than 100 µM and a TGI (NCI-H226 lung) greater than 100 µM. The TGI (NCI-H522 lung) was 62.3 µM, the TGI (PC-3 prostate) was greater than 100 µM and the TGI (MCF7 breast) was greater than 100 µM. It also gave a TGI (SF-295 CNS) greater than 100 µM, a TGI (HS 578T breast) greater than 100 µM and a TGI (TK-10 renal) greater than 100 µM. It also gave a TGI (CCRF-CEM leukemia) of 49.9 µM, a TGI (OVCAR-3 ovarian) greater than 100 µM and a TGI (T-47D breast) greater than 100 µM. The TGI (EKVX NSCLC) was 69.1 µM, the TGI (OVCAR-8 ovarian) was greater than 100 µM and the TGI (SK-MEL-28 melanoma) was greater than 100 µM. It also gave a TGI (HL-60(TB) leukemia) of 84.5 µM, a TGI (SF-268 CNS) greater than 100 µM and a TGI (DU-145 prostate) greater than 100 µM.

Reference: PubChem BioAssay (NCI)
